Results reported in patent US6545033B1, “Fused 1-(2,6-dichloro-4-trifluoromethylphenyl)-pyrazoles, the synthesis thereof and the use thereof as pesticides” (3-Dimensional Pharmaceuticals, Inc., priority 1999, dated 2003).

Tests used:
[1] = system: cat fleas (Ctenocephalides felis), NC Fleas; assay: In vivo cat flea contact assay, NC fleas; settings: contact with treated filter disk in vial, about 24-30 hours; mM = concentration of the DMSO solution, about 1 μL applied
Experimental: (§1) This example describes an in vivo assay to screen compounds for their ability to kill cat fleas via contact.
(§2) Test compounds were dissolved in dimethylsulfoxide (DMSO) at concentrations ranging from about 0.05 mM to about 100 mM. About 1 μL of dissolved test compound was dispensed onto a 6 mm (diameter) GF/C filter disk (filter material available from Whatman Inc., Clifton, N.J.) in the bottom of a 4 mL screw-top glass vial and allowed to air dry 24-48 hours. Positive control vials were prepared in the same manner except that no test compounds were dissolved in the DMSO. About 20 newly emerged cat fleas (Ctenocephalides felis) were sedated by refrigeration at 0-4° C. and transferred to each vial. Each vial was sealed with a thin, perforated Teflon™ septum secured by an open top screw cap and held vertically in the dark. After about 24-30 hours, the healthy, moribund, and dead cat fleas in each vial were counted. The percentage of dead cat fleas in each vial was then calculated using the formula M=100(D−(FC/100))/(F−(FC/100)), in which M is the percentage of dead cat fleas due to the addition of the test compound, D is the number of dead cat fleas in the test vial, F is the total number of cat fleas in the test vial, and C is the percentage of dead cat fleas in the control vials.

[2] = system: cat fleas (Ctenocephalides felis), CO Fleas; assay: In vivo cat flea contact assay, CO fleas; settings: contact with treated filter disk in vial, about 24-30 hours, mM = concentration of the DMSO solution, about 1 μL applied; for LC50: Ctenocephalides felis, topical, read-out: LD50 (mM), CO Fleas
Experimental: as §1, §2

[3] = system: houseflies (Musca domestica); assay: In vivo housefly contact assay; settings: contact in coated glass test tube, about 24 hours; mM = concentration of the DMSO solution, about 1 μL applied
Experimental: This example describes an in vivo assay to screen compounds for their ability to kill houseflies via contact. Newly emerged houseflies (Musca domestica, available from Rincon-Vitova Insectaries, Inc., Ventura, Calif.) were sedated with carbon dioxide gas, collected in 50 mL polypropylene conical tubes containing filter paper saturated with 10% (w/w) sucrose in water, and allowed to feed at room temperature for about 2-4 hours. Test compounds were dissolved as in dimethylsulfoxide (DMSO) at concentrations ranging from about 0.05 mM to about 100 mM. About 1 μL of dissolved test compound and about 100 μL of isopropanol were dispensed into the bottom of a 9 mL screw-top glass test tube. Positive control test tubes were prepared in the same manner except that no test compounds were dissolved in the DMSO. Each test tube was rolled to coat the sides with the chemical solution, and allowed to air dry 24-48 hours. About 20 houseflies were sedated by refrigeration at 0-4° C. and transferred to each test tube. Each test tube was sealed with organdy cloth secured by an open top screw cap and laid horizontally in the dark. After about 24 hours, the healthy, moribund, and dead houseflies in each test tube were counted. The percentage of dead houseflies in each test tube was then calculated using the formula M=100(D−(FC/100))/(F−(FC/100)), in which M is the percentage of dead houseflies due to the addition of the test compound, D is the number of dead houseflies in the test tube, F is the total number of houseflies in the test tube, and C is the percentage of dead houseflies in the control test tubes.

Housefly GABA receptors = molecular target: T1, Housefly GABA receptors (Musca domestica, UniProt Q75NA5); assay: In vitro assay of binding to housefly GABA receptors (3H-EBOB displacement, housefly neuronal membranes); settings: for Compounds with the most activity (housefly 3H-EBOB binding): housefly neuronal membranes
T1 sequence (Q75NA5 30-576): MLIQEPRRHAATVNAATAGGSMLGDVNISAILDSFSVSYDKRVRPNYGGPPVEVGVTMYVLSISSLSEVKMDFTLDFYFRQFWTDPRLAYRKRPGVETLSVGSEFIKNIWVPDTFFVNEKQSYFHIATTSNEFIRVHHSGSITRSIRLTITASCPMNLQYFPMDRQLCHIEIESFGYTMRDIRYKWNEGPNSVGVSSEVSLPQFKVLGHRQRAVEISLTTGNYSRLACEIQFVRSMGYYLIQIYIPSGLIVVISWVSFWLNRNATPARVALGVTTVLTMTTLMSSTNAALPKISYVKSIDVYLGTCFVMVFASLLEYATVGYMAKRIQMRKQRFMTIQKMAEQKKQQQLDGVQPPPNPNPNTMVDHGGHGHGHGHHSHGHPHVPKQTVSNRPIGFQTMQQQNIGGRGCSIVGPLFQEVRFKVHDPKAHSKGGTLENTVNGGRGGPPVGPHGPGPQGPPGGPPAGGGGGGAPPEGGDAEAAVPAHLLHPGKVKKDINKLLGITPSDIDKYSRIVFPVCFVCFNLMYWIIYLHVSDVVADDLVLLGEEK
Experimental: Newly emerged houseflies (Musca domestica, available from Rincon-Vitova Insectaries, Inc., Ventura, Calif.) were sedated with carbon dioxide gas, collected in 50 mL polypropylene conical tubes, and immediately frozen by submersion in liquid nitrogen. Unless specified, all of the following work was performed at 0-4° C. After removal from liquid nitrogen, the tubes of frozen houseflies were shaken vigorously by hand to decapitate the houseflies. […] Contaminating wings were removed by holding a vacuum nozzle approximately 4 cm above the heads, and contaminating legs were separated from the heads by passage through a #15 mesh screen. All remaining debris were removed from the pool of heads using forceps. The purified heads were collected in 50 mL polypropylene conical tubes and stored in liquid nitrogen until processed further.
About 13 g of purified housefly heads were suspended in about 65 mL of 10% sucrose buffer (10% sucrose (w/w) in 10 mM Tris, pH 7.5). The heads were homogenized for about 1 minute, using a Tissumizer™ homogenizer equipped with a SDT-100EN probe (available from Tekmar-Dohrmann, Cincinnati, Ohio) running at 70% of its maximum speed. The extract was further homogenized by about 5 passes through a 40 mL Dounce tissue grinder. The extract was then centrifuged at about 500×g for about 5 minutes to pellet large debris. The supernatant was collected; the pellet was washed with an additional 65 mL of 10% sucrose buffer and centrifuged at 500×g for about 5 minutes. The second supernatant was collected and combined with the first supernatant, and the pool was filtered through a 100μ CellMicroSieve™ mesh to remove residual debris (available from BioDesign of New York, Carmel, N.Y.).
Neuronal membranes containing active GABA receptors were collected via sucrose density centrifugation by the following method. About 8 mL of 35% sucrose buffer (35% sucrose (w/w) in 10 mM Tris, pH 7.5), were dispensed into each of six 38 mL ultracentrifuge tubes. These layers were overlaid with about 8 mL of 20% sucrose buffer (20% sucrose (w/w) in 10 mM Tris, pH 7.5), and finally overlaid with about 20 mL of filtered extract supernatant. The tubes were centrifuged at about 120,000×g for about 100 min at 4° C. After centrifugation, the 10% sucrose layer and most of the 20% sucrose layer were removed by aspiration. The membranes at the interface of the 20% sucrose and 35% sucrose layers were collected, pooled, diluted with 10% sucrose buffer, and centrifuged at about 120,000×g for about 40 min at 4° C. After centrifugation, the supernatant was discarded, and the pellets resuspended in about 6.5 mL of assay buffer (10 mM phosphate, 300 mM NaCl, pH 7.5) using a 10 mL Potter-Elvehjem tissue grinder with a Teflon® pestle. Protein concentration was determined by the Bio-Rad Protein Assay (available from Bio-Rad Laboratories, Hercules, Calif.) using bovine serum albumin as a standard. The membranes were aliquoted and stored in liquid nitrogen for up to 2 months before use.
Housefly neuronal membranes were prepared as described above from housefly heads. Test compounds were dissolved in dimethylsulfoxide (DMSO) at concentrations ranging from about 2 nM to about 100 mM. About 1 μL of a dissolved test compound was dispensed into a well of a 96-well polystyrene plate. About 100 μL of ice cold assay buffer (10 mM phosphate, 300 mM NaCl, pH 7.5) containing 5.2 nM 4′-Ethynyl-4-n-[2,3-^3H2]propylbicycloorthobenzoate (^3H-EBOB, 38 Ci/mmol, available from NEN Life Science Products, Boston, Mass.) was added to the well, followed by about 100 μL of ice cold assay buffer containing about 0.5-1.0 mg/mL housefly neuronal membranes. Control wells were prepared the same way except that the housefly neuronal membranes were omitted from the “negative” wells, and the test compounds were omitted from the “positive” wells. […]

[4] = molecular target: Mouse Brain GABA Receptors; assay: In vitro assay of binding to mouse brain GABA receptors (3H-EBOB displacement, mouse brain membranes); settings: displacement of 5.2 nM 3H-EBOB, about 45 min at about 24° C.
Experimental: Mouse brains were obtained from carbon dioxide-asphyxiated Swiss-Webster mice, washed with phosphate-buffered saline, and used either fresh or after storage at −80° C. for up to 10 months. Unless specified, all preparation steps were performed at 0-4° C. For each preparation, 20 brains were suspended in about 40 mL of 0.32 M sucrose and homogenized for about 2 minutes, using a Tissumizer™ homogenizer equipped with a SDT-100EN probe (available from Tekmar-Dohrmann, Cincinnati, Ohio) running at 50% of its maximum speed. The extract was centrifuged for about 5 min at about 1000×g to pellet intact brain tissue. The supernatant was retained and the pellet washed with an additional 40 mL of 0.32 M sucrose and centrifuged at 1000×g for about 5 minutes. The 1000×g supernatants were combined and centrifuged at about 10,000×g for about 20 min to pellet membranes. The 10,000×g supernatant was discarded and the pellet was resuspended in about 20 mL of water containing 1 mM EDTA. The sample was dialyzed two times for about 3 hours each against about 3 L of water. The sample was then centrifuged at about 25,000×g for about 30 min to pellet the membranes. After centrifugation, the supernatant was discarded and the wet pellet recovered. The protein concentration of the pellet was determined by the Bio-Rad Protein Assay (available from Bio-Rad Laboratories, Hercules, Calif.) using bovine serum albumin as a standard. The membranes were aliquoted and stored at −80° C. for up to 6 months before use.
Mouse brain membranes were prepared as described above from dissected mouse brains. Test compounds were dissolved in dimethylsulfoxide (DMSO) at concentrations ranging from about 2 nM to about 100 mM. About 1 μL of a dissolved test compound was dispensed into a well of a 96-well polystyrene plate. About 100 μL of ice cold assay buffer (10 mM phosphate, 300 mM NaCl, pH 7.5) containing 5.2 nM 4′-Ethynyl-4-n-[2,3-^3H2]propylbicycloorthobenzoate (^3H-EBOB, 38 Ci/mmol, available from NEN Life Science Products, Boston, Mass.) was added to the well, followed by about 100 μL of ice cold assay buffer containing about 0.25-0.5 mg/mL mouse brain membranes. Control wells were prepared the same way except that the mouse brain membranes were omitted from the “negative” wells, and the test compounds were omitted from the “positive” wells. The samples were incubated for about 45 min at about 24° C. and then filtered on a 0.1% (w/v) polyethylenimine-soaked glass fiber Filtermat A (available from EG&G Wallac Inc., Gaithersburg, Md.) followed by four 100 mL rinses of cold assay buffer using a Harvester 96® cell harvester (available from Tomtec, Orange, Conn.). The filtermat was air dried and radioactivity bound to the filtermat was detected with either a 1450 MicroBeta® Trilux scintillation counter (available from EG&G Wallac Inc.) or a Topcount NXT™ scintillation counter (available from Packard Instrument Co., Meriden, Conn.) using standard methods.
Specific binding was considered to be the difference between total ^3H bound to the mouse brain membranes in the absence of any inhibitors and nonspecific ^3H bound to the mouse brain membranes upon the addition of 5 μM unlabeled EBOB. The average radioactivity contained in the “negative” wells was subtracted from each of the assay wells. […] Compounds that displaced ^3H-EBOB specifically bound to the mouse brain membranes were tested at 24-48 different final concentrations, varying from about 1 nM to about 125 μM, in order to determine the concentration at which 50% of the maximum inhibition due to the addition of that compound was observed (IC50). […]

| Compound | LD50 (mM), NC Fleas [1] [mM] | LD50 (mM), CO Fleas [2] [mM] | LD50 (mM), Flies [3] [mM] | Compounds with the most activity (housefly 3H-EBOB binding) (Housefly GABA receptors) | LC50 [2] [mM] | IC50 (Housefly GABA receptors; displacement of 5.2 nM 3H-EBOB, housefly head neuronal membranes, about 45 min at about 24° C., read-out: IC50 (nM), Fly Head) [nM] | IC50 [4] [nM] |
| --- | --- | --- | --- | --- | --- | --- | --- |
| O=S1(=O)Cc2cn(-c3c(Cl)cc(C(F)(F)F)cc3Cl)nc2C1 [3″, 2-[2,6-Dichloro-4-(trifuoromethyl)phenyl]-4,6-dihydrothieno-[3,4-c]pyrazole-5,5-dione] | >100 | >100 | 5 | – | – | – | – |
| CC1(C)CCc2nn(-c3c(Cl)cc(C(F)(F)F)cc3Cl)cc21 [Compound 38, 2-[2,6-Dichloro-4-(trifluoromethyl)phenyl]-4,4-dimethyl-2,4,5,6-tetrahydrocyclopenta[c]pyrazole] | 15 | – | >100 | most activity | 54 | – | – |
| FC(F)(F)c1cc(Cl)c(-n2cc3c(n2)CCCC3)c(Cl)c1 [Compound 13, 2-[2,6-Dichloro-4-(trifluoromethyl)phenyl]-4,5,6,7-tetrahydro-2H-indazole] | 20 | – | >100 | most activity | 37.5 | – | – |
| CC1(O)c2cn(-c3c(Cl)cc(C(F)(F)F)cc3Cl)nc2C(F)C1F (stereo not shown) [Compound 88, 2-[2,6-Dichloro-4-(trifluoromethyl)phenyl]-5,6-difluoro-4-methyl-2,4,5,6-tetrahydrocyclopenta[c]pyrazol-4-ol] | – | – | – | – | 5 | 350 | – |
| FC(F)(F)c1cc(Cl)c(-n2cc3c(n2)CC(F)(F)C3(F)F)c(Cl)c1 [Compound 92, 2-[2,6-Dichloro-4-(trifluoromethyl)phenyl]-4,4,5,5-tetrafluoro-2,4,5,6-tetrahydrocyclopenta[c]pyrazole] | – | – | – | – | < 0.5 | – | 60 |
| FC1Cc2nn(-c3c(Cl)cc(C(F)(F)F)cc3Cl)cc2C1(F)F (stereo not shown) [Compound 56, 2-[2,6-Dichloro-4-(trifluoromethyl)phenyl]-4,4,5-trifluoro-2,4,5,6-tetrahydrocyclopenta[c]pyrazole] | – | – | – | – | 1 | – | 1000 |
| FC(F)(F)c1cc(Cl)c(-n2cc3c(n2)CCC3(F)F)c(Cl)c1 [Compound 61, 2-[2,6-dichloro-4-(trifluoromethyl)phenyl]-4,4-difluoro-2,4,5,6-tetrahydrocyclopenta[c]pyrazole] | – | – | – | – | 5 | – | 1000 |
